Data from the METLIN SMRT retention time set (Domingo-Almenara et al. 2019).

Test: gradient 5% acetonitrile 3 min, to 50% in 2 min, to 85% in 15 min, held 3 min, 100 µL/min
Conditions: column: Zorbax Extend-C18 2.1 x 50 mm; eluents: water / acetonitrile, 0.1% formic acid
Summary of the method: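 In both positive and negative ionization mode, a quadrupole time-of-flight mass spectrometer coupled to HPLC analyzed pure standards run in mixtures of ~100 molecules. The Zorbax Extend-C18 column (2.1 × 50 mm, 1.8 μm) was operated at 100 μL/min with water and acetonitrile, each containing 0.1% formic acid. The dead volume was 40 μL and the dwell volume 900 μL. Retention time came from adduct peaks that were computationally picked and individually inspected by hand.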

| Compound | RP-LC retention time [s] |
| --- | --- |
| Cc1cccc(C)c1NC(=O)CCCSc1nnnn1-c1ccccc1 | 810 |
| CC1CCN(C(=O)CSCC(=O)Nc2nc(-c3ccc4c(c3)OCO4)cs2)CC1 | 890 |
| CN(C)c1nc2ncn3c(=O)n(CC(=O)Nc4cccc(F)c4)nc3c2s1 | 686 |
| Cc1nn(C)c(=O)c2cc(S(=O)(=O)NCc3ccco3)cn12 | 718 |
| Cc1noc2nc(C)n(CC(=O)NC3CCCc4ccccc43)c(=O)c12 (stereo not given) | 822 |
| CN(C)CCn1c2c(c(SCC(=O)Nc3ccc(F)c(F)c3)nc1=O)CCC2 | 638 |
| COCCNc1c(-c2ccc(F)cc2)nc2sc(C(=O)N3CCCC3)c(C)n12 | 757 |
| CN1C(=O)CO[C@@H](C(=O)N2CCN(c3ccccc3)CC2)[C@@H]1c1ccccc1 | 796 |
| O=C(Cn1cnc2c(nc3n2CCCCC3)c1=O)Nc1ccc2c(c1)OCCO2 | 659 |
| COc1ccc(NC(=O)N2C[C@@H]3C[C@H](NS(=O)(=O)c4ccccc4)[C@H]2C3)c(OC)c1 | 745 |
| O=C(CCN(CC1CCCO1)C(=O)c1ccc(C(F)(F)F)cc1)N1CCNCC1 (stereo not given) | 628 |
| Cc1noc(-c2cccc(OC3CN(C(=O)NC4CCCCC4)C3)c2)n1 | 891 |
| CCc1ccccc1NS(=O)(=O)c1ccc(-c2nnc(C3CCC3)o2)o1 | 960 |
| Cc1ccccc1CNC(=O)C(=O)NCC(c1ccc2c(c1)OCO2)N1CCOCC1 (stereo not given) | 668 |
| CCC1CN2C=NC(N3CCN(S(=O)(=O)Cc4cccc(F)c4)CC3)=CC2=N1 (stereo not given) | 680 |
| Cc1ccc(F)cc1NC(=O)Cn1nc2nc(N3CCCC(C)C3)ccn2c1=O (stereo not given) | 804 |
| COc1ccc(NC(=O)N2CC(N(C3CCOCC3)S(C)(=O)=O)C2)cc1OC | 630 |
| Cc1nnc2sc(SCc3ccc(C(F)(F)F)cc3)nn2c1=O | 801 |
| CCCOc1ccc(C2NCCc3c2[nH]c2ccccc32)cc1OC (stereo not given) | 642 |
| Cc1ccc(-c2[nH]ncc2CN)cc1C | 586 |
| O=C(Cn1cnc2ccccc2c1=O)N[C@@H](Cc1ccccc1)C(=O)O | 671 |
| CCCC(NCc1ccc2c(c1)n(C)c(=O)n2C)c1ccccc1 (stereo not given) | 635 |
| COc1cc(OC)cc(-c2nc(Cn3c(C)nc4ccccc4c3=O)no2)c1 | 876 |

| Compound | RP-LC retention time [s] |
| --- | --- |
| CCOC(=O)c1cc(C)nc2c1c(=O)n(Cc1ccccc1F)c(=O)n2C | 1070 |
| CCOC(=O)c1c(S(=O)(=O)NCc2ccccc2F)n[nH]c1C | 728 |
| COC[C@@H]1CN(S(=O)(=O)c2cccc(F)c2)C[C@H]1c1ccncc1 | 649 |
| NC(=O)[C@@H]1CCCN1C(=O)[C@H](Cc1ccccc1)NC(=O)[C@@H]1CCCN1C(=O)[C@@H](N)Cc1ccc(O)cc1 | 584 |
| CCCCC(=O)Nc1ccc(N2CCOCC2)cc1C(=O)O | 578 |
| CCOC(=O)C1=C(CN2CC(C)CC(C)C2)NC(=O)NC1c1ccc(OC(C)C)cc1 (stereo not given) | 708 |
| CCOc1ccc(C(=O)N2CCN(S(=O)(=O)c3cc4c5c(c3)CCC(=O)N5CCC4)CC2)cc1 | 815 |
| CCCNC(=O)N1CCCN(C)c2ccccc21 | 613 |
| CCOC(=O)c1noc2nc(C)nc(Nc3cc(C)cc(C)c3)c12 | 1060 |
| COc1ccc2c(c1)C1CC(C)(NC(=O)C1S(=O)(=O)c1ccc(C(C)C)cc1)O2 (stereo not given) | 1010 |
| CCOC(=O)c1c(C)[nH]c(CCC(=O)NCCN2CCCCC2)c1C | 607 |
| COc1ccc(-c2noc(Cn3nc(-c4ccc(C)cc4)ccc3=O)n2)c(OC)c1 | 949 |
| COc1ccc(Cn2c(=O)c3sccc3n(Cc3nc(-c4ccccc4C)no3)c2=O)cc1 | 1150 |
| CCN1CCN(S(=O)(=O)c2ccc(Cl)c(-c3nnc(-c4ccc(OC)cc4)o3)c2)CC1 | 677 |
| Cc1ccc(-c2noc(CN3C(=O)COc4ccc(C(C)(C)C)cc43)n2)cc1 | 1310 |
| COc1cccc(CC(=O)Nc2ccc(-c3nc(Cn4cccn4)c(C)o3)cc2)c1 | 848 |
| O=[N+]([O-])c1ccc2nc(N3CCNCC3)ccc2c1 | 641 |
| O=C(Oc1cccc(Oc2ccccc2)c1)N1CCOCC1 | 889 |
| Brc1ccc(NCc2nnc(-c3ccccc3)o2)cc1 | 899 |
| Cc1cc(=O)n(CC(=O)Nc2cccc(F)c2)c(N2CCOCC2)n1 | 666 |
| CC(C)c1ccc(C(=O)Nc2ccc3c(c2)Sc2ncccc2C(=O)N3C)cc1 | 950 |
| CCOC(=O)C1=CN(C)S(=O)(=O)N=C1C | 695 |
| COc1cc(NC(=O)C2CC(=O)N(c3ccc4c(c3)CCN4C(C)=O)C2)cc(OC)c1 (stereo not given) | 694 |

| Compound | RP-LC retention time [s] |
| --- | --- |
| CN(c1ccccc1)S(=O)(=O)c1ccc(C(=O)Nc2nnc(C3=COCCO3)o2)cc1 | 744 |
| CCc1nn2c(nnc3c(=O)n(CCc4c[nH]c5ccccc45)ccc32)c1-c1ccccc1 | 1010 |
| O=C(CC1CCCC1)Nc1cnc(-c2cccnc2)nc1 | 689 |
| O=C(CSc1nnnn1-c1cccc(C(F)(F)F)c1)N1CCOCC1 | 733 |
| CCc1ccc(CNC(=O)c2cn(-c3cc(-c4nc(C)no4)ccn3)cn2)cc1 | 805 |
| CCc1ccc(S(=O)(=O)N2CCCC(Cn3c(C)nc4cccnc43)C2)cc1 (stereo not given) | 769 |
| Cc1nc2cc(-c3noc(-c4ccc(C(F)(F)F)cc4)n3)ccc2o1 | 1210 |
| CCc1cc2c(cc(C(=O)NCc3ccccc3)n2C)s1 | 1060 |
| Cn1ncc(N2CCCC(C(=O)NCc3ccc(F)c(Cl)c3)C2)cc1=O (stereo not given) | 726 |
| O=C(Cc1ccc(Cl)cc1)NCc1nc(-c2ccc(-c3csc(C4CC4)n3)cc2)no1 | 1110 |
| O=C(NCc1ccco1)c1ccc2ccnc(N3CCN(c4ccc(F)cc4)CC3)c2c1 | 782 |
| O=C(CN1CCN(Cc2ccc(F)cc2)C1=O)NCCc1cccs1 | 776 |
| O=C(NCC1CC1)C1CCCN(c2cnc3nccnc3c2)C1 (stereo not given) | 643 |
| O=C(NCC1CC(=O)N(Cc2ccccc2)C1)c1cccc(Cl)c1 (stereo not given) | 727 |
| COc1ccccc1NC(=O)N1CCN(c2cc(C)nc(N3CCCCC3)n2)CC1 | 695 |
| CC(=O)Nc1ccc(NC(=O)CSc2ccc(N3CCCC(C(=O)NC4CC4)C3)nn2)cc1 (stereo not given) | 584 |
| Cc1cc(NS(=O)(=O)c2cc3n(c2)CCN(C(C)C)C3=O)ccc1F | 1320 |
| COc1ccc(C(C)NC(=O)C2CCN(c3nccnc3Sc3ccc(C)cc3)CC2)cc1 (stereo not given) | 1060 |
| Cc1ccc(NC(=O)N2CCN(c3cnn4c(C5CC5)nnc4c3)CC2)cc1 | 653 |
| CCC(=O)NCCc1c[nH]c2ccc(Cl)cc12 | 743 |
| O=C(NCCC1=CCCCC1)C1CCCN(c2ncnc3c2oc2ccccc23)C1 (stereo not given) | 872 |
| CC(C)c1noc(C2CCCN(C(=O)NC(C)(C)C)CCC(=O)NCC2)n1 (stereo not given) | 690 |
| Cc1ccc(NS(=O)(=O)c2ccc3c(c2)C(=O)N(C)c2ncccc2O3)c(F)c1 | 910 |

| Compound | RP-LC retention time [s] |
| --- | --- |
| CN1CCC(NC(=O)C2CCN(c3nc4ccc(-c5cccs5)nc4s3)CC2)CC1 | 654 |
| CCc1nc(-n2cccc2)sc1C(=O)NC1CCC(C)CC1 (stereo not given) | 1180 |
| COc1ccccc1N1CCN(C(=O)C2=CCN(Cc3ccccc3)CC2)CC1 | 629 |
| Cc1ccc2nc(-c3cccc(Br)c3)c(Nc3ccc4c(c3)OCCO4)n2c1 | 749 |
| O=C(c1ccco1)N1CCCn2nc(-c3cccc(Cl)c3)cc2C1 | 861 |
| Cc1cc(=O)n(CC(=O)Nc2ccc(F)cc2)c(N2CCN(c3ccccc3)CC2)n1 | 828 |
| Nc1nc(Cl)nc2c1ncn2[C@H]1C[C@H](O)[C@@H](CO)O1 | 593 |
| Cc1nn(C)c(C)c1CCN(C)C(=O)C1Cn2cccc2C(=O)N1CC(C)C (stereo not given) | 642 |
| Cc1cccc(-c2nc(Cn3nnc(-c4nc(-c5cccc(Cl)c5)no4)c3C)c(C)o2)c1 | 1300 |
| O=C(NC1CCCCCC1)c1csc(-c2ccc(N3CCOCC3)nc2)n1 | 991 |
| O=C(NCCc1nc2cccnc2n1Cc1ccccc1)NCc1ccco1 | 678 |
| CCS(=O)(=O)N1CCN(Cc2ccc(OC)nc2)CC1 | 921 |
| O=C(Cn1nc2nc(Nc3ccc(F)cc3)ccn2c1=O)NC1CCCC1 | 701 |
| CCNc1cc(N2CCCC(CCC(=O)NC(C)c3cccs3)C2)ncn1 (stereo not given) | 661 |
| CCN1CCCC1CN(CC(=O)N1CCNCC1)S(=O)(=O)c1ccc(CC(C)C)cc1 (stereo not given) | 610 |
| CC(C)N1CCC2(CC1)CN(C(=O)NCc1ccco1)Cc1ccccc1O2 | 650 |
| Cc1c(N2C(=O)c3cccc4cccc(c34)C2=O)c(=O)n(-c2ccccc2)n1C | 644 |
| Cc1nc(NC2CCCCC2)sc1C(=O)Nc1ccc(F)cc1F | 855 |
| CCOC(=O)c1ccc(NC(=O)c2c(OCC)cc(=O)n3c2CCCC3)cc1 | 770 |
| Cc1ccc(C2=NC3(CCN(C(=O)c4ccc5cc[nH]c5c4)CC3)ON2)cc1 | 755 |
| O=C(Cn1ncc2c3ccccc3n(Cc3ccccc3)c2c1=O)N1CCN(c2ncccn2)CC1 | 902 |
